Entries after “also recorded” stand apart in the source; their conditions may differ. Like-named read-outs stand apart in the source and are kept apart here.
Tests used:
human Rio1 [1] = biological target: T1, human Rio1 (Homo sapiens, UniProt Q9BRS2); test: Rio1 autophosphorylation assay ([γ-32P]ATP); format: biochemical; settings: 0.5 µM ATP; for IC50: 37 °C, 15 min, read-out: IC50 (µM) ± SD Rio1; for Ki: read-out: Ki (µM) ± SD Rio1
T1 construct: Human recombinant kinase Rio1 containing residues 134–494 was expressed and purified as previously reported; made in house
T1 sequence (Q9BRS2 134-494): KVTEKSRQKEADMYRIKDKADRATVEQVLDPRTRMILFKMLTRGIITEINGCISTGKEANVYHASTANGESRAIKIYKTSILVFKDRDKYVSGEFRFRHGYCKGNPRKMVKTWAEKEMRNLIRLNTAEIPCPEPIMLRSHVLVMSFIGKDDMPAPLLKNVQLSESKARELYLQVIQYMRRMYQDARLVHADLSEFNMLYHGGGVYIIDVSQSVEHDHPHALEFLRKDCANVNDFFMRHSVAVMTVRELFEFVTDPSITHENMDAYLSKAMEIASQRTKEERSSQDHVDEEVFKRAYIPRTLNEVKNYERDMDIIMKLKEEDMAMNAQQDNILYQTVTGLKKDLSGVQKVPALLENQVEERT
Experimental: Recombinant human protein kinase GST-CK2α was produced in bacteria and purified as described elsewhere. The plasmid carrying the gene encoding human protein kinase Rio1 (residues […]) was kindly gifted by Professor Nicole LaRonde—LeBlanc (University of Maryland, USA). Human recombinant kinase Rio1 containing residues 134–494 was expressed and purified as previously reported with a few modifications.
In order to determine the autophosphorylation of human Rio1, the enzyme was incubated at 37 °C for 15 min in 50 μl samples each containing 1 pmol of human recombinant Rio1 and an appropriate concentration of tested compound (0.01–50 µM). The reaction buffer contained 0.5 µM ATP, [γ-^32P]ATP (specific radioactivity 300–1000 cpm/pmol), 50 mM NaCl, 10 mM Mg^2+, 50 mM Tris–HCl pH 7.5, and 6 mM 2-mercaptoethanol.
(§1) The phosphorylation was terminated by addition of SDS/PAGE sample buffer, and proteins were resolved by electrophoresis, followed by Coomassie Brilliant Blue staining. The gels were dried and ^32P-labelled bands of P2B and Rio1 were excised from the gel, and radioactivity was determined in a scintillation counter (MicroBeta, Perkin Elmer) by Cerenkov counting.
(§2) IC50, K i, K m, and V max values were calculated using GraphPad Prism (version 4.0) software.

hCK2α [2] = biological target: T2, hCK2α (Homo sapiens, UniProt P68400); test: CK2 phosphorylation assay (P2B substrate, [γ-32P]ATP); format: biochemical; design: GST (N); made in house; host or cells: bacteria; settings: for IC50 / Ki: 20 µM ATP, P2B protein substrate; for IC50: 37 °C, 5 min, read-out: IC50 (µM) ± SD CK2; for Ki: read-out: Ki (µM) ± SD CK2; for inhibition of CK2 stronger than that of Rio1 (fold): CK2 versus Rio1
T2 sequence (P68400 whole entry): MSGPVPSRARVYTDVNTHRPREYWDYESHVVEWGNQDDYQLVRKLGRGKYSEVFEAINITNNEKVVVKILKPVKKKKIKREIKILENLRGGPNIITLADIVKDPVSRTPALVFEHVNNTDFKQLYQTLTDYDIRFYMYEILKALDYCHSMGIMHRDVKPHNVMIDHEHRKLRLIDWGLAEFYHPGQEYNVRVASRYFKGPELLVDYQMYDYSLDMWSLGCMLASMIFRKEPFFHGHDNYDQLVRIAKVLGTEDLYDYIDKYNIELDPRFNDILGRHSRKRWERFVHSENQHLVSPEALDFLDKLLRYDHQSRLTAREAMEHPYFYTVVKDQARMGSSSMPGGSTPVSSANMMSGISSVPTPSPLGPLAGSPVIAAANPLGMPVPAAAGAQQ
Experimental: Recombinant human protein kinase GST-CK2α was produced in bacteria and purified as described elsewhere.
The reaction buffer contained 20 µM [γ-^32P]ATP (specific radioactivity 300–1000 cpm/pmol), 15 mM Mg^2+, 20 mM Tris–HCl pH 7.5, and 6 mM 2-mercaptoethanol.
as §1, §2

human Rio1 [3] = biological target: T1, human Rio1; test: Steady-state kinetics of Rio1 autophosphorylation (Km for ATP, Vmax) with TIBI; format: biochemical
Experimental: Additionally, the same protocol was followed with the addition of TIBI to the reaction mixture at a concentration of 0.01, 0.05, and 0.1 µM.
as §1, §2

hRio1 [4] = biological target: T3, hRio1 (Homo sapiens, UniProt Q9BRS2); test: Thermofluor (thermal shift) assay, Rio1; format: binding; settings: 100 µM TIBI
T3 construct: Human recombinant kinase Rio1 containing residues 134–494 was expressed and purified as previously reported; made in house
T3 sequence (Q9BRS2 134-494): T1 sequence (Q9BRS2 134-494)
Experimental: The procedure was performed according to the protocol described elsewhere with a few modifications. 10-µl reactions containing 50 mM NaCl, 10 mM Mg^2+, 50 mM Tris–HCl pH 7.5, 1 mg/ml hRio1 or hCK2α, and 100 µM TIBI or 5% DMSO (control) were incubated at 4 °C for 30 min. 10 µl of the SYPRO Orange dye was then added to the reactions. The samples were heated from 4 to 98 °C at a rate of 0.2° per second using a thermal cycler (CFX 1000, Bio-Rad). The changes in fluorescence intensity were measured as the temperature increased. Melting temperatures (T m) of hRio1 and CK2 in the presence and absence of TIBI were calculated using Bio-Rad software. The experiment was performed in duplicate.

hCK2α [5] = biological target: T2, hCK2α; test: Thermofluor (thermal shift) assay, CK2α; format: binding; settings: 100 µM TIBI
Experimental: The procedure was performed according to the protocol described elsewhere with a few modifications. 10-µl reactions containing 50 mM NaCl, 10 mM Mg^2+, 50 mM Tris–HCl pH 7.5, 1 mg/ml hRio1 or hCK2α, and 100 µM TIBI or 5% DMSO (control) were incubated at 4 °C for 30 min. 10 µl of the SYPRO Orange dye was then added to the reactions. […] The changes in fluorescence intensity were measured as the temperature increased. Melting temperatures (T m) of hRio1 and CK2 in the presence and absence of TIBI were calculated using Bio-Rad software. The experiment was performed in duplicate.

hRio1 [6] = biological target: T3, hRio1; test: Size-exclusion chromatography of Rio1 (oligomeric state); settings: 100 µM TIBI, 2 mg/ml hRio1
Experimental: The glass column (200/10 mm) filled with the Sephadex G-200 medium (GE Healthcare) was equilibrated with a buffer containing 10 mM Tris, pH 7.5, 150 mM NaCl, and 6 mM β-mercaptoethanol. In order to calibrate the column, four proteins, namely β-amylase (200 kDa), alcohol dehydrogenase (150 kDa), bovine serum albumin (67 kDa), and ovalbumin (43 kDa), were separately loaded onto the column. 100-µl samples containing 2 mg/ml hRio1 diluted in the equilibration buffer in the presence or absence (control) of 100 µM TIBI were then loaded onto the column. The chromatography was performed at a flow rate 0.2 ml/min using the FPLC system AKTA Purifier 10 (GE Healthcare), and runs were monitored by OD280.

human Rio1 [7] = biological target: T1, human Rio1; test: Rio1 autophosphorylation assay ([γ-32P]ATP); format: biochemical
[8] = system: promyelocytic leukemia cell line HL-60; design: method as in PMID 21229880; settings: cited from earlier work
human Rio1 [9] = biological target: T1, human Rio1; settings: cited from earlier work
hRio1 [10] = biological target: T3, hRio1; settings: cited from earlier work

CN(C)c1nc2c(Br)c(Br)c(Br)c(Br)c2n1C [1Me-DMAT, 4,5,6,7-tetrabromo-N,N,1-trimethylbenzimidazole-2-amine]
IC50 (human Rio1 [1]): 0.61 ± 0.02 µM
IC50 (hCK2α [2]): 0.39 ± 0.012 µM
Ki (hCK2α [2]): 0.167 µM
inhibition of CK2 stronger than that of Rio1 (fold) (hCK2α [2]): twofold stronger

O=C(O)c1ccc2c(c1)nc(Nc1cccc(Cl)c1)c1ccncc12 [CX-4945, Silmitasertib, reference compound]
IC50 (human Rio1 [1]): 0.37 ± 0.011 µM
Ki (human Rio1 [1]): 0.209 ± 0.008 µM

CN(C)c1nc2c(Br)c(Br)c(Br)c(Br)c2[nH]1 [DMAT, 2-dimethylamino-4,5,6,7-tetrabromobenzimidazole, reference compound]
IC50 (human Rio1 [1]): 0.19 ± 0.009 µM
Ki (human Rio1 [1]): 0.1 µM

Cc1nc2c(I)c(I)c(I)c(I)c2[nH]1 [K92, 4,5,6,7-tetraiodo-2-methylbenzimidazole]
IC50 (human Rio1 [1]): 0.19 ± 0.011 µM
Ki (human Rio1 [1]): 0.1 ± 0.004 µM
IC50 (hCK2α [2]): 0.066 ± 0.003 µM
Ki (hCK2α [2]): 0.025 ± 0.001 µM
inhibition of CK2 stronger than that of Rio1 (fold) (hCK2α [2]): fourfold stronger

Brc1c(I)c(Br)c2nc[nH]c2c1I [K95, 4,6-dibromo-5,7-diiodobenzimidazole]
IC50 (human Rio1 [1]): 0.29 ± 0.009 µM
Ki (human Rio1 [1]): 0.164 ± 0.007 µM
IC50 (hCK2α [2]): 0.3 ± 0.009 µM
Ki (hCK2α [2]): 0.128 ± 0.005 µM

Brc1c(Br)c(Br)c2[nH]nnc2c1Br [TBB, 4,5,6,7-Tetrabromo-2-azabenzimidazole, reference compound]
IC50 (human Rio1 [1]): 1.74 ± 0.05 µM
Ki (human Rio1 [1]): 0.983 ± 0.03 µM

Brc1c(Br)c(Br)c2[nH]cnc2c1Br [TBI, 4,5,6,7-tetrabromobenzimidazole]
IC50 (human Rio1 [1]): 0.33 ± 0.007 µM
Ki (human Rio1 [1]): 0.186 ± 0.009 µM

CC(CC(=O)O)Sc1nc2c(Br)c(Br)c(Br)c(Br)c2[nH]1 (stereo not shown) [TBSB, 3-(4,5,6,7-tetrabromobenzimidazole-2-ylsulfanyl)butanoic acid]
IC50 (human Rio1 [1]): 0.65 ± 0.03 µM
Ki (human Rio1 [1]): 0.367 ± 0.012 µM
IC50 (hCK2α [2]): 0.33 ± 0.013 µM
Ki (hCK2α [2]): 0.141 ± 0.005 µM
inhibition of CK2 stronger than that of Rio1 (fold) (hCK2α [2]): twofold stronger

Cn1c(SCC(=O)O)nc2c(Br)c(Br)c(Br)c(Br)c21 [TBTS, [(4,5,6,7-tetrabromo-N,N,1-trimethylbenzimidazole-2-yl)sulfanyl]acetic acid]
Ki (human Rio1 [1]): 0.39 ± 0.011 µM
IC50 (hCK2α [2]): 0.6 ± 0.03 µM
Ki (hCK2α [2]): 0.257 ± 0.009 µM

Clc1c(Cl)c(Cl)c2[nH]cnc2c1Cl [TCI, 4,5,6,7-tetrachlorobenzimidazole]
IC50 (human Rio1 [1]): 1.9 ± 0.07 µM
Ki (human Rio1 [1]): 1.07 ± 0.04 µM
IC50 (hCK2α [2]): 9.7 ± 0.3 µM
Ki (hCK2α [2]): 4.15 ± 0.1 µM

CC(CC(=O)O)Cn1c(N(C)C)nc2c(Br)c(Br)c(Br)c(Br)c21 (stereo not shown) [TDBB, 3-methyl-4-[4,5,6,7-tetrabromo-2-(dimethylamino)benzimidazole-1-yl]butanoic acid]
IC50 (human Rio1 [1]): 2.17 ± 0.06 µM
Ki (human Rio1 [1]): 1.23 ± 0.03 µM
IC50 (hCK2α [2]): 1.51 ± 0.04 µM
Ki (hCK2α [2]): 0.647 ± 0.014 µM

NCCNc1nc2c(I)c(I)c(I)c(I)c2[nH]1 [TI-2Am, 4,5,6,7-tetraiodobenzimidazole-2-amine-ethylamine]
IC50 (human Rio1 [1]): 0.23 ± 0.01 µM
Ki (human Rio1 [1]): 0.13 ± 0.005 µM
IC50 (hCK2α [2]): 0.05 ± 0.002 µM
Ki (hCK2α [2]): 0.021 ± 0.001 µM
inhibition of CK2 stronger than that of Rio1 (fold) (hCK2α [2]): ca. sixfold stronger

Ic1c(I)c(I)c2[nH]cnc2c1I [TIBI, 4,5,6,7-tetraiodobenzimidazole]
IC50 (human Rio1 [1]): 0.09 ± 0.005 µM
Ki (human Rio1 [1]): 0.05 ± 0.002 µM
mode of inhibition of Rio1 (human Rio1 [3]): strict ATP-competitive inhibitors
Vmax of Rio1 in the presence of TIBI (human Rio1 [3]; no shift with increasing TIBI concentration): 0.09 pmol/s
ΔTm at 100 µM (hRio1 [4]; bound versus unbound, read-out: shift in melting temperature (Tm) of Rio1): 10 °C
melting temperature (Tm) of bound Rio1 (hRio1 [4]; unbound enzyme 58.8 °C): 68.8 °C
ΔTm at 100 µM (hCK2α [5]; bound versus unbound, read-out: shift in melting temperature (Tm) of CK2α): 20 °C
melting temperature (Tm) of TIBI-bound CK2α (hCK2α [5]; unbound enzyme 58.8 °C): 78.8 °C
effect on oligomeric state (monomer–tetramer equilibrium) of Rio1 (hRio1 [6]): does not influence the oligomeric state; also recorded: did not observe any changes in the monomer–tetramer equilibrium
IC50 (human Rio1 [7]; IC50 against Rio1 at 0.01 µM ATP, 0.01 µM ATP): 46 nM
IC50 (human Rio1 [7]; IC50 against Rio1 at 0.1 µM ATP, 0.1 µM ATP): 61 nM
IC50 (human Rio1 [7]; IC50 against Rio1 at 1 µM ATP, 1 µM ATP): 101 nM
proapoptotic activity [8]: proapoptotic activity
IC50 (hCK2α [2]): 0.083 ± 0.003 µM
Ki (hCK2α [2]): 0.035 ± 0.001 µM

CN(C)c1nc2c(I)c(I)c(I)c(I)c2n1C [TIdiMe, 2-dimethylamino-1-metyl-4,5,6,7-tetraiodobenzimidazole]
IC50 (human Rio1 [1]): 0.24 ± 0.008 µM
Ki (human Rio1 [1]): 0.135 ± 0.005 µM
IC50 (hCK2α [2]): 0.2 ± 0.006 µM
Ki (hCK2α [2]): 0.085 ± 0.003 µM

N#Cc1cn([C@@H]2O[C@H](CO)[C@@H](O)[C@H]2O)c2ncnc(N)c12 [Toyocamycin, toyocamycin, reference compound]
IC50 (human Rio1 [1]): 3.66 ± 0.09 µM
Ki (human Rio1 [1]): 2.07 ± 0.07 µM
mode of inhibition of Rio1 (human Rio1 [9]): mixed inhibition
shift in Tm of human Rio1 bound to toyocamycin (hRio1 [10]): 12.1 °C
IC50 (hCK2α [2]): 54.8 ± 1.9 µM
Ki (hCK2α [2]): 23.5 ± 0.8 µM

Reference: article PMC5290066 (Molecular and Cellular Biochemistry, 2016)
